Laboratory results taken from article PMC12038849, “Identification and Characterization of a Leoligin-Inspired Synthetic Lignan as a TGR5 Agonist” (Journal of Natural Products, 2025).

Target: T1, G-protein coupled bile acid receptor 1 (GPBAR1 or TGR5) (Homo sapiens, UniProt Q8TDU6)
T1 construct: human TGR5-ORF (NM_170699), stably expressed in HEK EPAC cells
T1 sequence (Q8TDU6 1-330): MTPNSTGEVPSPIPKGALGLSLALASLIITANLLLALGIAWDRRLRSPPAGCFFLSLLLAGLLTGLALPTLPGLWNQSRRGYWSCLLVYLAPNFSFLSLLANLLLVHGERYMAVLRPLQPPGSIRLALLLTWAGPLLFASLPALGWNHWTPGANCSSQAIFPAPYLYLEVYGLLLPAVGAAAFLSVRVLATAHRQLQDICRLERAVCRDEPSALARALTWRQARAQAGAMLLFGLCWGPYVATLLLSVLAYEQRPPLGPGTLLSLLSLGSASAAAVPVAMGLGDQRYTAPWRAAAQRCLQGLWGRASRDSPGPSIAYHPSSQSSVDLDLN
Assay: EPAC FRET cAMP accumulation assay in TGR5-expressing HEK cells; inactive in non-TGR5 cells
Type: cell-based

EC50: 23 µM
SMILES: C/C=C(/C)C(=O)OCC[C@H]1[C@@H](Cc2ccc(OC)c(OC)c2)CO[C@@H]1c1ccc(OC)c(OC)c1 [compound 1, LT-188A]
